Entries after “also recorded” stand apart in the source; their conditions may differ.
Key:
[1] = tested on: human monocyte-derived immature dendritic cells; assay: Whole cell flow cytometry (FACS) of phage clone binding; details: day 4 cells, several donors; versus phage clone with no insert
Protocol: 5×10^4 Dendritic cells and 2×10^11 of an individual purified phage clone were each blocked at 4° C. for 30 mins in 1 ml MBSA (2% Marvel, 5% BSA in PBS), with mixing on a turntable. The dendritic cells were spun down at 2000 rpm, a gentle centrifugation to pellet cells without lysing them, for 5 min at 4° C., and the pellet resuspended in the blocked phage solution. The mixture was held on ice for 30 min to allow the phage to bind, before spinning down the cells, removing the supernatant and washing the cells with 1 ml 1% BSA, 0.05% Tween20-PBS. The cells were spun again, the supernatant removed, and the cells fixed in 1 ml 1% paraformaldehyde for 30 min on ice. […] The cells were incubated with the antibody on ice for 30 min before spinning down, washing twice in 0.05% Tween20, 1% BSA PBS, resuspending in […] and measuring the percentage cells positive for FITC by FACS analysis.
Alternatively, 5×10^4 dendritic cells were mixed with 2×10^11 of individual phage clones as described for panning of the phage library. The mixture of phage and DC suspensions was kept on ice for 30 min before cells were centrifuged to remove the supernatant and washed with 1 ml 1% BSA, 0.05% Tween 20-PBS. The cells were again pelleted by centrifugation, then fixed for flow cytometry analysis by resuspending in 1 ml of 1% paraformaldehyde for 30 min on ice. […] The cells were incubated with the antibody on ice for 30 min then pelleted by centrifugation, washed twice in 0.05% Tween 20, 1% BSA PBS and resuspended in 200 μl PBS. The percentage of FITC-positive cells was determined by flow cytometry using a Epics XL flow cytometer (Beckman Coulter, High Wycombe, UK.).

[2] = tested on: N2a (Neuro2A) cells; assay: LID transfection, luciferase reporter assay, N2a; type: cell-based, mouse; details: LID with lipofectin
Protocol: Transfection complexes comprising lipid, peptide and DNA were prepared. The lipid component was lipofectin (Invitrogen Ltd, Paisley, UK), the peptide component was a peptide A to F, 6 or 6J derivative, as described above, and the DNA was the plasmid pCILuc (Promega UK Ltd, Southampton). In the transfection complex, peptide to DNA charge ratios (+/−) were used at 3:1, 5:1 and 7:1. The lipid component was maintained at a constant proportion, by weight, relative to DNA of 0.75:1. Prior to making transfection complexes the lipid component was diluted to a concentration of 15 μg or 30 μg per ml, the peptide was prepared at 0.1 mg/ml and the DNA was at 40 μg per ml. All dilutions were performed with OptiMEM reduced serum tissue culture medium (Life Technologies). Transfection complexes were made by mixing of components in the order 1) lipid then 2) peptide and finally 3) DNA, then diluted with OptiMEM to a concentration relative to the DNA component of 0.25 μg DNA per […]
For transfection of these types of cell i.e. HMEC, HAEo-, N2a and HepG2, 1×10^4 cells were seeded overnight in 96 well plate. 200 μl of the suspension of the transfection complex prepared according to (b) above was added to each well. The suspension was applied to cells within 5 minutes of preparation. […]

[3] = tested on: human monocyte-derived immature dendritic cells; assay: LID (lipid-peptide-DNA) transfection of immature dendritic cells, EGFP by FACS and 7AAD cell death; type: cell-based; details: for Transfection efficiency, % positive cells: day 4 cells; for Transfection efficiency (percentage cells positive for EGFP) relative to peptide 6: day 6 cells, LID vector
Protocol: Lipopolyplex (LID) transfection complexes comprising lipid (L), peptide (in the form of a peptide derivative as described above) (I) and DNA (D) were prepared. The lipid component was Lipofectin or Lipofectamine 2000 (Invitrogen Ltd, Paisley, UK), the peptide component was a synthesized peptide A to F, 6 or 6J derivative, as described in Table 7 above, and the DNA was the plasmid pEGFP-N1 (Clontech, BD Biosciences, Palo Alto, Calif.)
In the transfection complex, peptide component to DNA charge ratios (+/−) were used at 1.5:1, 3:1 and 7:1. The lipid
component (Lipofectin or Lipofectamine 2000) was maintained at a constant proportion, by weight, relative to DNA of 0.75:1. Prior to making transfection complexes, in method A the lipid component was diluted to a concentration of 15 μg per ml, the peptide was prepared at 0.1 mg/ml and the DNA (plasmid pEGFP-N1, BD Biosciences, Cowley, UK, prepared using EndoFree plasmid kit, Qiagen Ltd, Crawley, UK) was at 10 μg per ml. All dilutions were performed with OptiMEM reduced serum tissue culture medium (Life Technologies Ltd, Paisley, UK). In method B prior to making transfection complexes the lipid component was diluted to a concentration of 30 μg per ml, the peptide was prepared at 0.1 mg/ml and the DNA (plasmid pEGFP-N1, BD Biosciences, Cowley, UK, prepared using EndoFree plasmid kit, Qiagen Ltd, Crawley, UK) was at […]. All dilutions were performed in serum-free RPMI.
Transfection complexes were made by mixing the components in the order 1) lipid (50 μl) then 2) peptide (70 μl) and finally 3) DNA (50 μl), then diluting with OptiMEM or serum free RPMI, as appropriate, to a concentration relative to the DNA component of 2 μg DNA per […] (OptiMEM) or 500 μl (RPMI).
Immature day 6 dendritic cells, obtained as described in Example 1(v) above, were plated into a 48 well plate at 5×10^4 cells per well in complete media and allowed to settle for 3 hours at 37° C. 300 μl or 500 μl (as appropriate) of the transfection complex obtained as described above was added to each well. The transfection complex was applied to cells within 5 minutes of preparation. Transfection incubations were performed at 37° C. for 4 hours, after which the medium was replaced with complete medium with cytokines for 24 hours. Cells were harvested by scraping, spun down and resuspended in 300 μl PBS for FACS analysis to determine the percentage of cells positive for the reporter gene EGFP (Enhanced Green Fluorescent Protein). Each transfection was performed in triplicate wells.
For transfection of monocytes, peripheral blood monocytes were prepared using Lymphoprep centrifugation and CD14 bead selection as described in the method for preparation of monocyte derived dendritic cells in Example 1(v) above. These cells were then transfected as described as described for dendritic cells except that transfection of the monocytes (and also of day 3 or day 4 immature dendritic cells) was carried out in solution.

[4] = lipofectin, lipid:DNA 0.75:1, peptide:DNA 7:1 (FIG. 5a)

| Substance | Percentage of cells positive for bound phage (FITC) by FACS [1] | Transfection efficiency (luciferase activity per mg protein) relative to peptide 6 [2] | Transfection efficiency, % positive cells [3, 4] | Transfection efficiency (percentage cells positive for EGFP) relative to peptide 6 [3] | Transfection efficiency, % positive cells ([3]; no lipid) |
| --- | --- | --- | --- | --- | --- |
| APSNSTA (Synthetic peptide binding to dendritic cells) | binding to a higher percentage of cells than a phage clone bearing no insert; also recorded: bind to dendritic cells in highest amounts; also recorded: binding to dendritic cells in highest amounts | less than half that value | 11% | equal to those of peptide 6 | – |
| SHVKLNS (Synthetic peptide binding to dendritic cells) | binding to a higher percentage of cells than a phage clone bearing no insert; also recorded: bind to dendritic cells in highest amounts; also recorded: binding to dendritic cells in highest amounts | equal to those seen with peptide 6 | 17% | approximately one and a half times that of the positive control, peptide 6 | less than 1% |
